From patent US6306822A, “Phosphopeptides and methods of treating bone diseases” (Big Bear Bio, Inc., priority 1998, dated 2001)

What was measured:
ovariectomized rats = experiment: Ovariectomized rat osteoporosis model, femur bone mineral content by DEXA; assay type: in vivo, Harlan-Sprague-Dawley rats; conditions: Day 45, femur, OVX rats; compared with sham (positive) and OVX saline (negative) controls; doses and routes per b114 table
Description: Ovariectomized rats were chosen for the efficacy study of O-phosphoserine containing polypeptides. Ovaries were surgically resected from young female Harlan-Sprague-Dawley rats. Sham-operated rats were also prepared to use as positive controls.
After 7 days acclimation, the ovariectomized (OVX) rats were randomly divided into different treatment groups (6 animals per each group). Six sham-operated rats were assigned to the positive control group. Each group was fed a normal rat diet throughout the test period but received different treatments as summarized below: […]
The test samples four groups 3, 4, 5, and 6 were dissolved in saline and administered at once. Total volume of the sample solution was 1 ml and 0.1 ml per animal for oral and parenteral administration, respectively. Oral preparations were administered once a day and injection (s.c.) was every three days.
The group receiving the highest amount of oral Pse (group 3) was used to compare the efficacy of monomeric Pse versus Pse contained in a polypeptide.
On Days 0, 45, and 90 of the treatment, the femurs of most of the participating animals were subject to DEXA (dual energy X-ray absorptiometry) measurement, a typical method by which to study the status of bone growth. The animals were anesthetized and fixed on the bed when receiving the DEXA scan. […]

[1] = test system: bone formation and resorption; experiment: In vitro or ex vivo bone formation and resorption assay systems; conditions: typical in vitro or ex vivo bone formation and resorption assay systems
From the text: The mechanism of action of these polypeptides is not completely understood. […] These peptides may increase to bone formation by attracting calcium which is solubilized in the biological fluids (serum, bone marrow, and so on, etc.). In addition, these peptides may have an effect on the formation or cross-linking of bone matrix proteins, by forming hydroxyapatite on or between such matrix proteins.

N[C@@H](COP(=O)(O)O)C(=O)O [Pse, O-phosphoserine]
bone mineral content (BMC) measured by DEXA (ovariectomized rats): close to that of the negative control | biological effect on bone [1]: neither the O-phosphoserine-containingpolypeptides nor O-phosphoserine monomer had any biological effect
